We go through one molecule from patent EP0318620A1, “Herbicidal sulfonamides” (E.I. DU PONT DE NEMOURS AND COMPANY, priority 1987, dated 1989).

Structures are written as SMILES.

The test system of assay [1] is wheat. The assay is described as follows: Test B pan test in Sassafras sandy loam soil, pre- and postemergence. It counts as in vivo, Triticum aestivum. Particulars: scale 0 to 100. From the text: Three round pans (25 cm diameter by 12.5 cm deep) were filled with Sassafras sandy loam soil. One pan was planted with nutsedge (Cyperus rotundus) tubers, crabgrass (Digitaria sanguinalis), sicklepod (Cassia obtusifolia), jimsonweed (Datura stramonium), velvetleaf (Abutilon theophrasti), lambsquarters (Chenopodim album), rice (Oryza sativa) and teaweed (Sida spinosa). The second pot was planted with green foxtail (Setaria viridis), cocklebur (Xantium pensyivanicum), morningglory (lpomoea hederacea), cotton (Gossypium hirsutum), johnsongrass (Sorghum halepense), barnyardgrass (Echinochloa crusgalli), corn (Zea mays), soybean (Glycine max) and giant foxtail (Setaria faberi). The third pot was planted with wheat (Triticum aestivum), barley (Hordeum vulgare), wild buckwheat (Polgonum convolvulus L.), cheatgrass (Bromus secalinus L.), sugarbeet (Beta vulgaris), wild oats (Avena fatua), viola (Viola arvensis), blackgrass (Alopecurus myosuroides), and rape (Brassica napus). The plants were grown for approximately fourteen days, then sprayed postemergence with the chemicals dissolved in a non-phytotoxic solvent.
Three round pans (25 cm diameter by 12.5 cm deep) were filled with Sassafras sandy loam soil. One pan was planted with nutsedge tubers, crabgrass, sicklepod, jimsonweed, velvetleaf, lambsquarters, rice and teaweed. The second pot was planted with green foxtail, cocklebur, morningglory, cottom, johnsongrass, . barnyardgrass, corn, soybean and giant foxtail. The third pot was planted with wheat, barley, wild buckwheat, cheatgrass, sugarbeet, wild oat, viola, blackgrass and rape. The three pans were sprayed preemer gence with the chemicals dissolved in a non-phytotoxic solvent.
Treated plants and controls were maintained in the greenhouse for 24 days, then all rated plants were compared to controls and visually rated for plant response.
A dash (-) response means no test.

Assay [2] has as its system barnyardgrass. The assay is described as follows: Test A greenhouse herbicide test, pre- and postemergence. It counts as in vivo, Echinochloa crusgalli. Particulars: rated after sixteen days. The text has this:
(§1) Seeds of crabgrass (Digitaria spp.), barnyardgrass (Echinochloa crusgalli), cheatgrass (Bromus Secalinus), giant foxtail (Setaria faberii), wild oats (Avena fatua), velvetleaf (Abutilon theophrasti), morningglory (Ipomoea spp. , cocklebur (Xanthium pensylvanicum). sorghum, corn, barley, soybean, sugarbeet, cotton, rice, wheat and purple nutsedge (Cyperus rotundus) tubers were planted and treated preemergence with the test chemicals dissolved in a non-phytotoxic solvent. At the same time, these crop and weed species were treated with a soil/foliage application. At the time of treatment, the plants ranged in height from 2 to 18 cm. Treated plants and controls were maintained in a greenhouse for sixteen days, after which all species were compared to controls and visually rated for response to treatment. The ratings, summarized in Table A, are based on a numerical scale extending from 0 = no injury, to 10 = complete kill. The accompanying descriptive symbols have the following meanings: • B = burn; • C = chlorosis/necrosis; • D = defoliation; • E = emergence inhibition; • G = growth retardation; • H = formative effect; • U = unusual pigmentation; • X = axillary stimulation; • S = albinism; and • 6Y = abscised buds or flowers.

Assay [3] relates to giant foxtail. Described as above. It counts as in vivo, Setaria faberii. Particulars: rated after sixteen days.
From the text: as §1

For `CCOC(=O)c1c(CC#N)cccc1S(=O)(=O)NC(=O)Nc1nc(OC)cc(OC)n1` [Compound 3, 2-(cyanomethyl)-6 [[(4,6-dimethoxypyrimidin-2-yl)-aminocarbonyl]aminosulfonyl]benzoic acid, ethyl ester], the WHEAT response rating in assay [1] (POSTEMERGENCE, RATE 0001 G/HA) is given as 30; in assay [1] (POSTEMERGENCE, RATE 0004 G/HA) it was 50; in assay [1] (POSTEMERGENCE, RATE 0016 G/HA), 70; in assay [1] (POSTEMERGENCE, RATE 0062 G/HA), 100; in assay [1] (PREEMERGENCE, RATE 0004 G/HA), 0; in assay [1] (PREEMERGENCE, RATE 0016 G/HA), 30. The WHEAT response rating in assay [1] (PREEMERGENCE, RATE 0062 G/HA) came to 70. Besides, the “BARNYARD GRASS visual rating of response to treatment” value came out at 9C in assay [2] (POSTEMERGENCE, RATE 0.01 KG/HA); 10C in assay [2] (POSTEMERGENCE, RATE 0.05 KG/HA); 2G in assay [2] (PREEMERGENCE, RATE 0.01 KG/HA). Besides, the “GIANT FOXTAIL visual rating of response to treatment” value stood at 9C in assay [3] (POSTEMERGENCE, RATE 0.01 KG/HA); 10C in assay [3] (POSTEMERGENCE, RATE 0.05 KG/HA); 5G in assay [3] (PREEMERGENCE, RATE 0.01 KG/HA).
